Source: the supplement of paper PMC10307832

Experiments:
Experiment in all cases: relative viability (nuclei count vs DMSO), 5 days (fraction); higher = more cells survive
[1] = compound: O=C(O)c1ccc2c(c1)nc(Nc1cccc(Cl)c1)c1ccncc12 [Silmitasertib] + CC(=O)c1c(C)c2cnc(Nc3ccc(N4CCNCC4)cn3)nc2n(C2CCCC2)c1=O [Palbociclib] (partner 0.5 µM)
In short: (§1)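 Relative viability divides the nuclei count in treated wells by that in vehicle wells. Lung cancer cell lines were seeded in 1536-well plates, dosed by pin tool the next day, and fixed and stained after 5 days in one step with final 0.05% Triton X-100, 1% formaldehyde and 1 ug/ml Hoechst. Dosing was a single drug or a fixed anchor-drug dose plus five library-drug doses (not always all listed) in √10 steps, and values are medians of duplicate plates imaged at 4×.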

[2] = compound: O=C(O)c1ccc2c(c1)nc(Nc1cccc(Cl)c1)c1ccncc12 [Silmitasertib] + COc1cc2c(Oc3ccc(NC(=O)C4(C(=O)Nc5ccc(F)cc5)CC4)cc3F)ccnc2cc1OCCCN1CCOCC1 [Foretinib] (partner 0.25 µM)
In short: as §1

[3] = compound: O=C(O)c1ccc2c(c1)nc(Nc1cccc(Cl)c1)c1ccncc12 [Silmitasertib] + Nc1nc2[nH]cc(CCc3ccc(C(=O)N[C@@H](CCC(=O)O)C(=O)O)cc3)c2c(=O)[nH]1 [Pemetrexed] (partner 0.2 µM)
In short: as §1

[4] = compound: O=C(O)c1ccc2c(c1)nc(Nc1cccc(Cl)c1)c1ccncc12 [Silmitasertib] + CC(C)C[C@H](NC(=O)[C@H](Cc1ccccc1)NC(=O)c1cnccn1)B(O)O [Bortezomib] (partner 0.002 µM)
In short: as §1

[5] = compound: O=C(O)c1ccc2c(c1)nc(Nc1cccc(Cl)c1)c1ccncc12 [Silmitasertib] + Nc1ncn([C@H]2C[C@H](O)[C@@H](CO)O2)c(=O)n1 [Decitabine] (partner 2 µM)
In short: as §1

Row | Cell Line | relative viability ([1]; first compound 0.04 µM) | relative viability ([1]; first compound 0.4 µM) | relative viability ([1]; first compound 1.265 µM) | relative viability ([1]; first compound 4 µM) | relative viability ([2]; first compound 0.04 µM) | relative viability ([2]; first compound 0.4 µM) | relative viability ([2]; first compound 1.265 µM) | relative viability ([2]; first compound 4 µM) | relative viability ([3]; first compound 0.04 µM) | relative viability ([3]; first compound 0.4 µM) | relative viability ([3]; first compound 1.265 µM) | relative viability ([3]; first compound 4 µM) | relative viability ([4]; first compound 0.04 µM) | relative viability ([4]; first compound 0.4 µM) | relative viability ([4]; first compound 1.265 µM) | relative viability ([4]; first compound 4 µM) | relative viability ([5]; first compound 0.04 µM) | relative viability ([5]; first compound 0.4 µM) | relative viability ([5]; first compound 1.265 µM) | relative viability ([5]; first compound 4 µM)
1 | 201T | 0.353 | 0.346 | 0.37 | 0.387 | 1.2 | 1.19 | 1.09 | 1.21 | 0.381 | 0.229 | 0.341 | 0.381 | 1.03 | 1.1 | 1.16 | 1.2 | 0.851 | 0.841 | 0.847 | 0.903
2 | A549 | – | – | – | – | 0.961 | 0.819 | 0.952 | 0.858 | – | – | – | – | – | – | – | – | 0.244 | – | 0.27 | 0.158
3 | A-427 | 0.555 | 0.451 | 0.583 | 0.517 | 1.1 | – | 1.13 | 0.869 | 1.04 | 0.826 | 1.05 | 0.669 | 1.1 | – | 1.24 | 0.703 | 0.525 | 0.554 | 0.461 | 0.421
4 | ABC-1 | 1.09 | 0.86 | 0.555 | 0.674 | 1.07 | 0.83 | 0.457 | 0.367 | – | – | – | – | 0.402 | 0.353 | 0.281 | 0.226 | 1.44 | 1.05 | 0.686 | 0.922
5 | BEN | 0.511 | 0.394 | 0.432 | 0.519 | 0.858 | – | 0.657 | 0.467 | 0.905 | 0.715 | 0.703 | 0.609 | 0.9 | 0.584 | 0.644 | 0.599 | 0.866 | 0.685 | 0.537 | 0.656
6 | CAL-12T | 0.408 | 0.382 | 0.313 | 0.194 | 1.12 | 1.02 | 1.06 | 0.478 | 1.35 | 1.06 | 0.889 | 0.818 | 1.12 | 0.949 | 0.777 | 0.709 | – | – | – | –
7 | COR-L23 | 0.316 | 0.251 | 0.261 | 0.207 | 1.09 | 0.794 | 0.951 | 1.16 | 0.206 | 0.223 | 0.181 | 0.192 | 1.15 | 0.723 | 0.919 | 0.932 | 0.495 | 0.507 | 0.501 | 0.368
8 | COR-L 105 | 0.43 | 0.426 | 0.396 | 0.399 | 1.44 | 0.881 | 0.791 | 0.562 | 1.05 | 1.19 | 0.951 | 0.785 | 0.803 | 0.708 | 0.64 | 0.414 | 0.626 | 0.599 | 0.672 | 0.454
9 | ChaGo-K-1 | 0.995 | 0.674 | 0.896 | 0.929 | 0.99 | 0.731 | 0.876 | 0.971 | 0.265 | 0.24 | 0.253 | 0.275 | 1.32 | 0.934 | 0.957 | 0.537 | 0.526 | 0.486 | 0.463 | 0.509
10 | EKVX | 0.439 | – | 0.336 | 0.423 | 0.783 | 0.435 | 0.408 | 0.411 | 0.394 | – | 0.383 | 0.338 | 1.12 | 0.686 | 0.928 | 0.59 | 0.421 | – | 0.374 | 0.299
11 | EMC-BAC-2 | 0.521 | 0.448 | 0.378 | 0.292 | 1.04 | 0.861 | 0.577 | 0.411 | 0.455 | 0.319 | 0.423 | 0.369 | 1.05 | 0.999 | 1.06 | 0.784 | 1.01 | 0.951 | 0.93 | 0.819
12 | EPLC-272H | 0.319 | – | 0.343 | 0.304 | 0.687 | – | 0.321 | 0.219 | 0.374 | 0.359 | 0.385 | 0.122 | 0.906 | – | 0.573 | 0.491 | 0.475 | – | 0.296 | 0.348
13 | H3255 | 0.319 | 0.348 | 0.316 | 0.294 | 1.02 | 0.549 | 0.746 | 0.97 | 0.602 | 0.5 | 0.394 | 0.499 | 0.937 | 0.848 | 0.741 | 0.36 | 0.563 | 0.703 | 0.543 | 0.532
14 | HARA | 0.389 | 0.252 | 0.201 | 0.261 | 0.87 | 0.627 | 0.473 | 0.734 | 0.268 | 0.215 | 0.213 | 0.235 | 1.12 | 0.812 | 0.949 | 0.766 | 0.698 | 0.554 | 0.494 | 0.355
15 | HCC-15 | 0.77 | 0.491 | 0.564 | 0.367 | 1.03 | 0.86 | 0.772 | 0.761 | 0.242 | 0.229 | 0.216 | 0.215 | 1.02 | 0.655 | 0.856 | 0.408 | 0.703 | 0.536 | 0.404 | 0.292
